Source: patent US9340590B2 (priority 2011, dated 2016)
Read-outs that look alike come from different tables or passages of the source. Positions of bridges follow the written chain, without caps; N, C: chain ends. Non-standard residues stand in square brackets, D forms with d. Residues, ends and D or L forms follow the SMILES beside them. Lys(Me2) = CN(C)CCCC[C@H](N)C(=O)O

What was measured:
Test in all cases: cell-based
hNav1.3 = hNav1.3 (Homo sapiens, UniProt Q9NY46); conditions: IonWorks Quattro, read-out: IWQ Use Nav1.3
hNav1.5 [1] = molecular target: T1, hNav1.5 (Homo sapiens, UniProt Q14524)
T1 sequence (Q14524 whole entry, looked up): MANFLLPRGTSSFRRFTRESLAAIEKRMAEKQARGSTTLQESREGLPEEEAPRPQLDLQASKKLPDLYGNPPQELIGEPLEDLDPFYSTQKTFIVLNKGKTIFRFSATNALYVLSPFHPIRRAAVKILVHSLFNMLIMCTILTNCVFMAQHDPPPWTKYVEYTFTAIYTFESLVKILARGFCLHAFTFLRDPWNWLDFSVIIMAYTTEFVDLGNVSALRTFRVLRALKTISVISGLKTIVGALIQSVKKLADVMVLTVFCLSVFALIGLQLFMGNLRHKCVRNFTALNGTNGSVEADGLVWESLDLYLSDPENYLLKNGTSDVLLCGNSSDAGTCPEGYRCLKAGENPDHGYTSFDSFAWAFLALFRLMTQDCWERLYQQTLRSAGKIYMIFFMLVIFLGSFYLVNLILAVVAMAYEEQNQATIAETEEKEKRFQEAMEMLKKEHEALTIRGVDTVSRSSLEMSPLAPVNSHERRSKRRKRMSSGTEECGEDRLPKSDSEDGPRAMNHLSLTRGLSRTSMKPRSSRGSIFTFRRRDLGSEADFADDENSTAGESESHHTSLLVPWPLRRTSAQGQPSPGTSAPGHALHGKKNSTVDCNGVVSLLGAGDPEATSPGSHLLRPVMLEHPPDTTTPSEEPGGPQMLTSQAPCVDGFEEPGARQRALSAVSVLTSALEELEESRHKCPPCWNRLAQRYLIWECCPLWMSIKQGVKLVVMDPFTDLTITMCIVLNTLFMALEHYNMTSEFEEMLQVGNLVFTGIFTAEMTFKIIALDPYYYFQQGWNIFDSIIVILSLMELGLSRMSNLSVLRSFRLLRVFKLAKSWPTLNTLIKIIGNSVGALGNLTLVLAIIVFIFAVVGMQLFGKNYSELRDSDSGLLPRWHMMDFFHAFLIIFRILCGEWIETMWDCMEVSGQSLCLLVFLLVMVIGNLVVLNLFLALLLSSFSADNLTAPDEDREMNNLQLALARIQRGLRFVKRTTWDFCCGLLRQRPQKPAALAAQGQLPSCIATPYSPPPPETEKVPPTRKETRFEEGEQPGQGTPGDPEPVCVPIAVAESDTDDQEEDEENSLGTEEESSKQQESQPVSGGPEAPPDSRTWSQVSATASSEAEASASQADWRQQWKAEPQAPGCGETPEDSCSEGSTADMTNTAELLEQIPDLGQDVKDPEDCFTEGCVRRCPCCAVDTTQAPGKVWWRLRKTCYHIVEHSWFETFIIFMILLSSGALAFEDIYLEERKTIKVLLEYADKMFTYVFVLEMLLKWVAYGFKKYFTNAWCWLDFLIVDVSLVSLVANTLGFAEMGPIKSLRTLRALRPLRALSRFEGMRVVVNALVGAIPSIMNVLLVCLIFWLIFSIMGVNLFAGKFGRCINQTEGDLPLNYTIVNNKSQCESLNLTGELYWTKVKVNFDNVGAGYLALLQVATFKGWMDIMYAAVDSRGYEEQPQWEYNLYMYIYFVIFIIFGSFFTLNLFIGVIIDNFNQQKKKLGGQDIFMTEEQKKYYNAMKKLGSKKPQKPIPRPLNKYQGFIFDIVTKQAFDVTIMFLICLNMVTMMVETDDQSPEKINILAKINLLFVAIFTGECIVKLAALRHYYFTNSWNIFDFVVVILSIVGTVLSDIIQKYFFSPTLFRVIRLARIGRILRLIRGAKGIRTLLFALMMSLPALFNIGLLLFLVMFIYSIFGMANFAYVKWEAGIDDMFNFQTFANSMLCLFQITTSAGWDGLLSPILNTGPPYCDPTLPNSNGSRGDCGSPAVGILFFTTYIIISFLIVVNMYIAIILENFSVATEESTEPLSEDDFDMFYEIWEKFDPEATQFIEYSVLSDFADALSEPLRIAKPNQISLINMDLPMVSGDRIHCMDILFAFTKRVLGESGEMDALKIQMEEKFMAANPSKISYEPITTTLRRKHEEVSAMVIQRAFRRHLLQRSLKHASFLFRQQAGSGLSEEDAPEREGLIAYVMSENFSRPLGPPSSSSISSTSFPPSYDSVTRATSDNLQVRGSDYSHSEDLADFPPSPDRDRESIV

hNav1.7 [2] = molecular target: T2, hNav1.7 (Homo sapiens, UniProt Q15858); type: cell-based
T2 sequence (Q15858 whole entry, looked up): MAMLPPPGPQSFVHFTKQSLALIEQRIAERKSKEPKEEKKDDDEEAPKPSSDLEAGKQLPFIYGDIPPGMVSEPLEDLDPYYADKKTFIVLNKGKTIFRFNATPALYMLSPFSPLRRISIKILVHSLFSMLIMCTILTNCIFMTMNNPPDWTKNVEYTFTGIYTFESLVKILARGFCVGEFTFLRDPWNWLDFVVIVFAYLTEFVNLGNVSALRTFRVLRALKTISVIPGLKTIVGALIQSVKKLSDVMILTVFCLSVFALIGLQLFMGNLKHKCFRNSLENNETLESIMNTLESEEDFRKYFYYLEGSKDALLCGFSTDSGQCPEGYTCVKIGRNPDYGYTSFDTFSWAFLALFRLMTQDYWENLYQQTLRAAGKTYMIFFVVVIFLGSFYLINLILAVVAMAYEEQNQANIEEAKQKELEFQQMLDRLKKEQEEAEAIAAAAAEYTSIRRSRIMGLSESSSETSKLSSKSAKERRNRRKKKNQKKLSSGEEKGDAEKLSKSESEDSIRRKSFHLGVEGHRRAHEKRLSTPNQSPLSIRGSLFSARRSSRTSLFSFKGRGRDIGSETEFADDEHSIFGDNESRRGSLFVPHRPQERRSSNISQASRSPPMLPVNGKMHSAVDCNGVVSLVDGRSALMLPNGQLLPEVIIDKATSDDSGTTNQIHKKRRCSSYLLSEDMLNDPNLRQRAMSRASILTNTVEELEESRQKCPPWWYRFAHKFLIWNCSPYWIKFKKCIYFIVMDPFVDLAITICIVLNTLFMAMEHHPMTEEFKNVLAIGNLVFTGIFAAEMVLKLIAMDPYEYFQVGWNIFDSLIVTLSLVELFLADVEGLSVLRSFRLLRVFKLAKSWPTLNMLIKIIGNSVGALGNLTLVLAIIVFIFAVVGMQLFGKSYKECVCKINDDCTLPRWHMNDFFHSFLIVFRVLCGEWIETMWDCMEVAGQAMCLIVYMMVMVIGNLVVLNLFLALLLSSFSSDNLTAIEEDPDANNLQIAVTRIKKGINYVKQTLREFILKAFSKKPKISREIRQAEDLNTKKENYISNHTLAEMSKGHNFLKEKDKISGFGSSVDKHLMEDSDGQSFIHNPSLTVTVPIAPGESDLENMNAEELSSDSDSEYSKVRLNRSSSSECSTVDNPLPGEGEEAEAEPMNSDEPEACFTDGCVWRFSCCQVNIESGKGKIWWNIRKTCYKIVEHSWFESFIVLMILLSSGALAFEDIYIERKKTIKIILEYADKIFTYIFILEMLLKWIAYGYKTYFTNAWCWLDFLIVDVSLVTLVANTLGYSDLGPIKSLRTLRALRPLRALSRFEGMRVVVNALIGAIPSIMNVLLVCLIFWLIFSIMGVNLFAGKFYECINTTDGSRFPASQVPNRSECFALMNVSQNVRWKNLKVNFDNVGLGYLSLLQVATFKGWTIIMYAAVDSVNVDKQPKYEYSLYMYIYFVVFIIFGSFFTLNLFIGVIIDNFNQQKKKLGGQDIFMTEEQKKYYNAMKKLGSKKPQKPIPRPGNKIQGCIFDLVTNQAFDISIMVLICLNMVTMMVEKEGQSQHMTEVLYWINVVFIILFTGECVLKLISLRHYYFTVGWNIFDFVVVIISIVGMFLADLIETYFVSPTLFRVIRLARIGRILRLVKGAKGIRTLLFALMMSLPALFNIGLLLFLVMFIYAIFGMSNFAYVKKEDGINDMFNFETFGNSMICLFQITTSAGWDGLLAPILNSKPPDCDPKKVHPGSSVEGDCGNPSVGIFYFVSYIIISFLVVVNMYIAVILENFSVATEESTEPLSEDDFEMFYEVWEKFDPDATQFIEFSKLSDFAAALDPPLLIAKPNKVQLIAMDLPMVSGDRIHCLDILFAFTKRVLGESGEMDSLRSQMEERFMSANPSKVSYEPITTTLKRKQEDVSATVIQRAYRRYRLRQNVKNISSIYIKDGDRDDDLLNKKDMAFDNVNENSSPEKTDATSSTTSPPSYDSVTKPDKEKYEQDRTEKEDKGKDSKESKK

hNav1.5 [3] = molecular target: T1, hNav1.5; remark: listed apart in the source
hNav1.7 [4] = molecular target: T2, hNav1.7; conditions: Nav1.7 Use IC50
[5] = clamped to −110 mV, depolarized to −10 mV, 5 min after compound, n=2
[6] = IonWorks Quattro, clamped to −110 mV, depolarized to −10 mV, 5 min after compound, n=2, read-out: IWQ Use Nav1.5
[7] = IonWorks Quattro, clamped to −110 mV, depolarized to −10 mV, 5 min after compound, n=2, read-out: IWQ Use Nav1.7

Structure (SMILES)	IC50 (hNav1.3; [5]) [nM]	IC50 (hNav1.5 [3]; [6]) [µM]	IC50 (hNav1.7 [4]) [nM]	IC50 (hNav1.7 [2]; [7]) [nM]	other results
CC[C@H](C)[C@@H]1NC(=O)[C@@H]2CSSC[C@@H]3NC(=O)[C@H](C(C)C)NC(=O)[C@H](CC(C)C)NC(=O)[C@H](CC(N)=O)NC(=O)[C@@H]4CCCN4C(=O)[C@H](CCCNC(=N)N)NC(=O)[C@H](CSSC[C@H](NC(=O)[C@@H](N)CC(=O)O)C(=O)N[C@@H](CC(C)C)C(=O)N[C@@H](CCCCN)C(=O)N[C@@H](Cc4ccccc4)C(=O)N[C@@H](CCSC)C(=O)N[C@@H](CCCNC(=N)N)C(=O)N[C@@H](CCCCN)C(=O)N2)NC(=O)[C@H](CSSC[C@@H](C(=O)N[C@@H](CCCCN)C(=O)N[C@@H](Cc2ccc(O)cc2)C(=O)N[C@H](C(=O)N[C@@H](Cc2ccccc2)C(N)=O)C(C)C)NC(=O)[C@H](Cc2c[nH]c4ccccc24)NC(=O)[C@H](CCCCN)NC(=O)[C@H](Cc2cnc[nH]2)NC(=O)[C@H]([C@@H](C)O)NC(=O)[C@H](CCCNC(=N)N)NC(=O)[C@H](CO)NC3=O)NC(=O)[C@H](CCCCN)NC(=O)[C@H](CC(=O)O)NC(=O)[C@H](CC(N)=O)NC(=O)[C@H](CC(=O)O)NC(=O)[C@@H]2CCCN2C1=O [SEQ ID NO: 39] (H-DCLKFMRKCIPDNDKCCRPNLVCSRTHKWCKYVF-NH2; disulfide 2-17, 9-23, 16-30)	180	9.82			IC50 (hNav1.5 [1]): 10600 nM; IC50 (hNav1.7 [2]): 200 nM
CC[C@H](C)[C@@H]1NC(=O)CNC(=O)[C@H](CC(C)C)NC(=O)[C@@H](NC(=O)[C@@H](N)CC(=O)O)CSSC[C@@H]2NC(=O)[C@@H]3CSSC[C@@H](C(=O)N[C@@H](CCCCN)C(=O)N[C@@H](Cc4ccc(O)cc4)C(=O)N[C@H](C(=O)N[C@@H](Cc4ccccc4)C(N)=O)C(C)C)NC(=O)[C@H](Cc4c[nH]c5ccccc45)NC(=O)[C@H](CCCCN)NC(=O)[C@H](Cc4cnc[nH]4)NC(=O)[C@H]([C@@H](C)O)NC(=O)[C@H](CCCNC(=N)N)NC(=O)[C@H](CO)NC(=O)[C@H](CSSC[C@H](NC(=O)[C@H](CCCCN)NC(=O)[C@H](CCCNC(=N)N)NC(=O)[C@H](CCSC)NC1=O)C(=O)N[C@@H]([C@@H](C)CC)C(=O)N1CCC[C@H]1C(=O)N[C@@H](CC(=O)O)C(=O)N[C@@H](CC(N)=O)C(=O)N[C@@H](CC(=O)O)C(=O)N[C@@H](CCCCN)C(=O)N3)NC(=O)[C@H](C(C)C)NC(=O)[C@H](CC(C)C)NC(=O)[C@H](CC(N)=O)NC(=O)[C@@H]1CCCN1C(=O)[C@H](CCCNC(=N)N)NC2=O [SEQ ID NO: 88] (H-DCLGIMRKCIPDNDKCCRPNLVCSRTHKWCKYVF-NH2; disulfide 2-17, 9-23, 16-30)	620	6.65	2	360	
CC[C@H](C)[C@@H]1NC(=O)[C@@H]2CSSC[C@@H]3NC(=O)[C@H](C(C)C)NC(=O)[C@H](CC(C)C)NC(=O)[C@H](CC(N)=O)NC(=O)[C@@H]4CCCN4C(=O)[C@H](CCCNC(=N)N)NC(=O)[C@H](CSSC[C@H](N)C(=O)N[C@@H](CC(C)C)C(=O)NCC(=O)N[C@@H](Cc4ccccc4)C(=O)N[C@@H](CCSC)C(=O)N[C@@H](CCCNC(=N)N)C(=O)N[C@@H](CCCCN)C(=O)N2)NC(=O)[C@H](CSSC[C@@H](C(=O)N[C@@H](CCCCN)C(=O)N[C@@H](Cc2ccc(O)cc2)C(=O)N[C@H](C(=O)N[C@@H](Cc2ccccc2)C(N)=O)C(C)C)NC(=O)[C@H](Cc2c[nH]c4ccccc24)NC(=O)[C@H](CCCCN)NC(=O)[C@H](Cc2c[nH]cn2)NC(=O)[C@H]([C@@H](C)O)NC(=O)[C@H](CCCNC(=N)N)NC(=O)[C@H](CO)NC3=O)NC(=O)[C@H](CCCCN)NC(=O)[C@H](CC(=O)O)NC(=O)[C@H](CC(N)=O)NC(=O)[C@H](CC(=O)O)NC(=O)[C@@H]2CCCN2C1=O [SEQ ID NO: 108] (H-CLGFMRKCIPDNDKCCRPNLVCSRTHKWCKYVF-NH2; disulfide 1-16, 8-22, 15-29)				70	IC50 (hNav1.5 [1]; read-out: Nav1.5 Use IC50): 4940 nM
CC[C@H](C)[C@@H]1NC(=O)[C@@H]2CSSC[C@@H]3NC(=O)[C@H](C(C)C)NC(=O)[C@H](CC(C)C)NC(=O)[C@H](CC(N)=O)NC(=O)[C@@H]4CCCN4C(=O)[C@H](CCCNC(=N)N)NC(=O)[C@H](CSSC[C@H](NC(=O)[C@@H](N)CC(=O)O)C(=O)N[C@@H](CC(C)C)C(=O)NCC(=O)N[C@@H](Cc4ccccc4)C(=O)N[C@@H](CCSC)C(=O)N[C@@H](CCCNC(=N)N)C(=O)N[C@@H](CCCCN)C(=O)N2)NC(=O)[C@H](CSSC[C@@H](C(=O)N[C@@H](CCCCN)C(=O)N[C@@H](Cc2ccc(O)cc2)C(=O)N[C@H](C(=O)N[C@@H](Cc2ccccc2)C(N)=O)C(C)C)NC(=O)[C@H](Cc2c[nH]c4ccccc24)NC(=O)[C@H](CCC(=O)O)NC(=O)[C@H](Cc2cnc[nH]2)NC(=O)[C@H]([C@@H](C)O)NC(=O)[C@H](CCCNC(=N)N)NC(=O)[C@H](CO)NC3=O)NC(=O)[C@H](CCCCN)NC(=O)[C@H](CC(=O)O)NC(=O)[C@H](CC(N)=O)NC(=O)[C@H](CC(=O)O)NC(=O)[C@@H]2CCCN2C1=O [SEQ ID NO: 153, [Glu28]GpTx-1(1-34)] (H-DCLGFMRKCIPDNDKCCRPNLVCSRTHEWCKYVF-NH2; disulfide 2-17, 9-23, 16-30)			50.1		IC50 (hNav1.3; Table 23, use, […]): 800 nM; IC50 (hNav1.5 [3]; IWQ Use Nav1.5 (μM)): 14.1 µM
CC[C@H](C)[C@@H]1NC(=O)[C@@H]2CSSC[C@@H]3NC(=O)[C@H](C(C)C)NC(=O)[C@H](CC(C)C)NC(=O)[C@H](CC(N)=O)NC(=O)[C@@H]4CCCN4C(=O)[C@H](CCCNC(=N)N)NC(=O)[C@H](CSSC[C@H](NC(=O)[C@@H](N)CC(=O)O)C(=O)N[C@@H](CC(C)C)C(=O)NCC(=O)N[C@@H](CC(C)C)C(=O)N[C@@H](CCSC)C(=O)N[C@@H](CCCNC(=N)N)C(=O)N[C@@H](CCCCN)C(=O)N2)NC(=O)[C@H](CSSC[C@@H](C(=O)N[C@@H](CCCCN)C(=O)N[C@@H](Cc2ccc(O)cc2)C(=O)N[C@H](C(=O)N[C@@H](Cc2ccccc2)C(N)=O)C(C)C)NC(=O)[C@H](Cc2c[nH]c4ccccc24)NC(=O)[C@H](CCCCN)NC(=O)[C@H](Cc2cnc[nH]2)NC(=O)[C@H]([C@@H](C)O)NC(=O)[C@H](CCCNC(=N)N)NC(=O)[C@H](CO)NC3=O)NC(=O)[C@H](CCCCN)NC(=O)[C@H](CC(=O)O)NC(=O)[C@H](CC(N)=O)NC(=O)[C@H](CC(=O)O)NC(=O)[C@@H]2CCCN2C1=O [SEQ ID NO: 267] (H-DCLGLMRKCIPDNDKCCRPNLVCSRTHKWCKYVF-NH2; disulfide 2-17, 9-23, 16-30)	300	7.4	7		IC50 (hNav1.7 [2]): 170 nM
CC[C@H](C)[C@@H]1NC(=O)[C@@H]2CSSC[C@@H]3NC(=O)[C@H](C(C)C)NC(=O)[C@H](CC(C)C)NC(=O)[C@H](CC(N)=O)NC(=O)[C@@H]4CCCN4C(=O)[C@H](CCCNC(=N)N)NC(=O)[C@H](CSSC[C@H](NC(=O)[C@@H](N)CC(=O)O)C(=O)N[C@@H](CC(C)C)C(=O)NCC(=O)N[C@@H](C(C)C)C(=O)N[C@@H](CCSC)C(=O)N[C@@H](CCCNC(=N)N)C(=O)N[C@@H](CCCCN)C(=O)N2)NC(=O)[C@H](CSSC[C@@H](C(=O)N[C@@H](CCCCN)C(=O)N[C@@H](Cc2ccc(O)cc2)C(=O)N[C@H](C(=O)N[C@@H](Cc2ccccc2)C(N)=O)C(C)C)NC(=O)[C@H](Cc2c[nH]c4ccccc24)NC(=O)[C@H](CCCCN)NC(=O)[C@H](Cc2cnc[nH]2)NC(=O)[C@H]([C@@H](C)O)NC(=O)[C@H](CCCNC(=N)N)NC(=O)[C@H](CO)NC3=O)NC(=O)[C@H](CCCCN)NC(=O)[C@H](CC(=O)O)NC(=O)[C@H](CC(N)=O)NC(=O)[C@H](CC(=O)O)NC(=O)[C@@H]2CCCN2C1=O [SEQ ID NO: 272] (H-DCLGVMRKCIPDNDKCCRPNLVCSRTHKWCKYVF-NH2; disulfide 2-17, 9-23, 16-30)	1030	13.2	18	710	
CC[C@H](C)[C@@H]1NC(=O)[C@@H]2CSSC[C@@H]3NC(=O)[C@H](C(C)C)NC(=O)[C@H](CC(C)C)NC(=O)[C@H](CC(N)=O)NC(=O)[C@@H]4CCCN4C(=O)[C@H](CCCCN(C)C)NC(=O)[C@H](CSSC[C@H](NC(=O)[C@@H](N)CC(=O)O)C(=O)N[C@@H](CC(C)C)C(=O)NCC(=O)N[C@@H](Cc4ccccc4)C(=O)N[C@@H](CCSC)C(=O)N[C@@H](CCCNC(=N)N)C(=O)N[C@@H](CCCCN)C(=O)N2)NC(=O)[C@H](CSSC[C@@H](C(=O)N[C@@H](CCCCN)C(=O)N[C@@H](Cc2ccc(O)cc2)C(=O)N[C@H](C(=O)N[C@@H](Cc2ccccc2)C(N)=O)C(C)C)NC(=O)[C@H](Cc2c[nH]c4ccccc24)NC(=O)[C@H](CCCCN)NC(=O)[C@H](Cc2cnc[nH]2)NC(=O)[C@H]([C@@H](C)O)NC(=O)[C@H](CCCNC(=N)N)NC(=O)[C@H](CO)NC3=O)NC(=O)[C@H](CCCCN)NC(=O)[C@H](CC(=O)O)NC(=O)[C@H](CC(N)=O)NC(=O)[C@H](CC(=O)O)NC(=O)[C@@H]2CCCN2C1=O [[K(Me2)18]GpTx-1(1-34)] (H-DCLGFMRKCIPDNDKCC[Lys(Me2)]PNLVCSRTHKWCKYVF-NH2; disulfide 2-17, 9-23, 16-30)					IC50 (hNav1.5 [1]): 10000 nM
